Like-named read-outs stand apart in the source and are kept apart here. Values belong to the compound of their own block, whether it stands above or below them.
What was measured:
[1] = biological target: T1, CRBN-DDB1 (Homo sapiens, UniProt Q96SW2); test: CRBN-DDB1 Ligand-Displacement AlphaScreen Assay (thalidomide competition); assay type: binding;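 further: streptavidin donor and nickel chelate acceptor bead proximity signal after 30 min incubation, normalized with no-protein background as 0% and DMSO wells as 100% activity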
T1 construct: 6xHis (given for the complex); made in house; host or cells: Sf9 cells (Invitrogen), pFastBac

[2] = tested on: IKZF1 adjoined to nanoluciferase (Nluc); test: IKZF1 Dual Luciferase Assay; assay type: cell-based; set-up: Nluc/Fluc IKZF1 Max Degradation: unit: %; conditions: 293 FT cells, 4 hours; for IC50: read-out: Nluc/Fluc IKZF1 IC50
[3] = biological target: BRDT (Homo sapiens, UniProt Q58F21); test: BRDT IC50 (Table 4); assay type: binding; conditions: read-out: IC50 (nM) BRDT
[4] = tested on: MOLT4; test: Cell viability, ATPlite 48 hours, MOLT4; assay type: cell-based; conditions: Homo sapiens, MOLT-4; MOLT4 cells
[5] = tested on: CUTL1; test: Cell viability, ATPlite 48 hours, CUTLL1; assay type: cell-based; conditions: CUTL1 cells
[6] = tested on: DND41; test: Cell viability, ATPlite 48 hours, DND41; assay type: cell-based; conditions: DND41 cells
[7] = tested on: NGP; test: Cell viability, ATPlite 72 hours; assay type: cell-based; conditions: NGP cells, Table 4; read-out: IC50 (nM) NGP
[8] = biological target: T2, BRD4 adjoined to nanoluciferase (Nluc) (Homo sapiens, UniProt O60885+Q96SW2); test: BRD4 Dual Luciferase Assay; assay type: cell-based; conditions: for Emax: BRD4 remaining at Emax, read-out: BRD4− Emax (percent remaining);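 on all read-outs here: transduced reporter cells exposed to compound for 4 h, then Nluc and Fluc luminescence read, each normalized to DMSO controls and expressed as Nluc/Fluc ratio per well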
T2 construct: expressed in transfected cells

[9] = biological target: BRD4 (Homo sapiens, UniProt O60885); test: BRD4 AlphaScreen; assay type: binding; set-up: […]; His tag (inferred from capture on Ni-coated acceptor beads)
[10] = biological target: T3, CRBN (Homo sapiens, UniProt Q96SW2); test: Intracellular CRBN Engagement Assay (dFKBP7 rescue); assay type: cell-based; conditions: competition with 80 nM dFKBP7, 3 hours; read-out: FKBP7 rescue (EC50)
T3 construct: endogenous in cells

[11] = tested on: 797; test: Cell viability, 797 cells (Table 4); assay type: cell-based; conditions: read-out: IC50 (nM) 797
[12] = 4 hours, read-out: max degradation (dual luc)
[13] = read-out: BRD4 max degradation(%) Dual Luciferase
[14] = biotin-thalidomide competition, read-out: THAL ALPHA (IC50)

SMILES: O=C1CCC(N2C(=O)c3ccc([N+](=O)[O-])cc3C2=O)C(=O)N1 [Compound D-2, 2-(2,6-dioxopiperidin-3-yl)-5-nitroisoindoline-1,3-dione]
IC50 ([1]; read-out: CRBN alpha IC50): 4.13 µM
IC50 [2]: > 50 µM

SMILES: CC[C@@H]1C(=O)N(C)c2cnc(Nc3ccc(C(=O)NCCCCCCCCNC(=O)COc4cccc5c4C(=O)N(C4CCC(=O)NC4=O)C5=O)cc3OC)nc2N1C1CCCC1 (stereo partly shown) [dBET8]
IC50 [3]: 820 nM
IC50 [4]: 88.5 nM
IC50 [5]: 42 nM
IC50 [6]: 47.2 nM
IC50 [7]: 153 nM

SMILES: Cc1cccc2c1C(=O)N(C1CCC(=O)NC1=O)C2=O [Compound D-19, 2-(2,6-dioxopiperidin-3-yl)-4-methylisoindoline-1,3-dione]
IC50 ([1]; read-out: CRBN alpha IC50): 0.147 µM
Nluc/Fluc IKZF1 Max Degradation [2]: 63.37

SMILES: Cc1nc2ccccc2c(=O)n1C1CCC(=O)NC1=O [Compound D-9, 3-(2-methyl-4-oxoquinazolin-3(4H)-yl)piperidine-2,6-dione]
IC50 ([1]; read-out: CRBN alpha IC50): 14.5 µM
Nluc/Fluc IKZF1 Max Degradation [2]: 67.23

SMILES: Cc1c(CC#N)sc2c1C(c1ccc(Cl)cc1)=N[C@@H](CC(=O)NCCCCNC(=O)COc1cccc3c1C(=O)N(C1CCC(=O)NC1=O)C3=O)c1nnc(C)n1-2 (stereo partly shown) [dBET19]
Dmax [8, 12]: -1.3%
Emax [8]: 93.3%
Dmax [8, 13]: > 5%
IC50 ([9]; read-out: BRD4 Alpha (IC50)): 212 nM
IC50 ([9]; read-out: IC50 (nM) BRD4): 212 nM
EC50 [10]: 4330 µM
IC50 [3]: 1130 nM
IC50 [1, 14]: 0.00362 µM
IC50 [11]: > 20000 nM

SMILES: O=C1CCC(N2C(=O)c3cccc(CNC(=O)C4CC4)c3C2=O)C(=O)N1 [Compound D-22, N-((2-(2,6-dioxopiperidin-3-yl)-1,3-dioxoisoindolin-4-yl)methyl)cyclopropanecarboxamide]
IC50 ([1]; read-out: CRBN alpha IC50): 0.375 µM
Nluc/Fluc IKZF1 Max Degradation [2]: 52.96

SMILES: Cc1noc(C)c1-c1ccc(-c2nc3cnccn3c2NCC(=O)NCCCCNC(=O)COc2cccc3c2C(=O)N(C2CCC(=O)NC2=O)C3=O)cc1 (stereo not shown) [dBET13]
IC50 ([9]; read-out: BRD4 Alpha (IC50)): 6930 nM
IC50 ([9]; read-out: IC50 (nM) BRD4): 6930 nM
EC50 [10]: 220 µM
IC50 [1, 14]: 0.0107 µM

SMILES: CC(C)Nc1ccc2c(c1)C(=O)N(C1CCC(=O)NC1=O)C2=O [Compound D-26, 2-(2,6-dioxopiperidin-3-yl)-5-(isopropylamino)isoindoline-1,3-dione]
IC50 ([1]; read-out: CRBN alpha IC50): 0.113 µM
IC50 [2]: > 50 µM

SMILES: O=C1CCC(N2C(=O)c3cccc(O)c3C2=O)C(=O)N1 [Compound D-1, 2-(2,6-dioxopiperidin-3-yl)-4-hydroxyisoindoline-1,3-dione]
IC50 [2]: > 50 µM

SMILES: O=C1CCC(N2C(=O)c3cccc(NCc4ccccc4)c3C2=O)C(=O)N1 [Compound D-16, 4-(benzylamino)-2-(2,6-dioxopiperidin-3-yl)isoindoline-1,3-dione]
IC50 ([1]; read-out: CRBN alpha IC50): 0.0714 µM
Nluc/Fluc IKZF1 Max Degradation [2]: 67.23

SMILES: Nc1cccc2c1C(=O)N(C1CCC(=O)NC1=O)C2=O [Compound D-4, 4-amino-2-(2,6-dioxopiperidin-3-yl)isoindoline-1,3-dione]
Nluc/Fluc IKZF1 Max Degradation [2]: 66.43

SMILES: CC(C)Nc1cccc2c1C(=O)N(C1CCC(=O)NC1=O)C2=O [Compound D-18, 2-(2,6-dioxopiperidin-3-yl)-4-(isopropylamino)isoindoline-1,3-dione]
IC50 ([1]; read-out: CRBN alpha IC50): 0.0253 µM
Nluc/Fluc IKZF1 Max Degradation [2]: 41.1

SMILES: O=C1CCC(N2C(=O)c3cccc([N+](=O)[O-])c3C2=O)C(=O)N1 [Compound D-10, 2-(2,6-dioxopiperidin-3-yl)-4-nitroisoindoline-1,3-dione]
IC50 ([1]; read-out: CRBN alpha IC50): 3.25 µM
IC50 [2]: > 50 µM

SMILES: O=C1CCC(N2C(=O)c3ccc(C(=O)O)cc3C2=O)C(=O)N1 [Compound D-13, 2-(2,6-dioxopiperidin-3-yl)-1,3-dioxoisoindoline-5-carboxylic acid]
IC50 [2]: > 50 µM

SMILES: Cc1nc2cccc(N)c2c(=O)n1C1CCC(=O)NC1=O [Compound D-17, 3-(5-amino-2-methyl-4-oxoquinazolin-3(4H)-yl)piperidine-2,6-dione]
Nluc/Fluc IKZF1 Max Degradation [2]: 67.59

SMILES: Cc1cnc(Nc2ccc(N3CCN(C(=O)CCC(=O)NCCCCCCCCNC(=O)COc4cccc5c4C(=O)N(C4CCC(=O)NC4=O)C5=O)CC3)cc2)nc1Nc1cccc(S(=O)(=O)NC(C)(C)C)c1 (stereo not shown) [dBET33]
Dmax [8, 12]: 9.96%
Dmax [8, 13]: < 10%
IC50 ([9]; read-out: BRD4 Alpha (IC50)): 4990 nM
IC50 ([9]; read-out: IC50 (nM) BRD4): 4990 nM
IC50 [11]: 4000 nM

SMILES: O=C1CCC(N2C(=O)c3cccc(F)c3C2=O)C(=O)N1 [Compound D-14, 2-(2,6-dioxopiperidin-3-yl)-4-fluoroisoindoline-1,3-dione]
IC50 ([1]; read-out: CRBN alpha IC50): 0.608 µM
IC50 [2]: > 50 µM

SMILES: CCN(CC)c1cccc2c1C(=O)N(C1CCC(=O)NC1=O)C2=O [Compound D-21, 4-(diethylamino)-2-(2,6-dioxopiperidin-3-yl)isoindoline-1,3-dione]
IC50 ([1]; read-out: CRBN alpha IC50): 0.164 µM
Nluc/Fluc IKZF1 Max Degradation [2]: 17.98

SMILES: Cc1noc(C)c1-c1ccc(-c2nc3cnccn3c2NCC(=O)NCCCOCCOCCOCCCNC(=O)COc2cccc3c2C(=O)N(C2CCC(=O)NC2=O)C3=O)cc1 (stereo not shown) [dBET14]
IC50 ([9]; read-out: BRD4 Alpha (IC50)): 8830 nM
IC50 ([9]; read-out: IC50 (nM) BRD4): 8830 nM
EC50 [10]: 227 µM
IC50 [1, 14]: 0.0124 µM

The next lines start with results.

IC50 ([1]; read-out: CRBN alpha IC50): 0.0589 µM
IC50 [2]: > 50 µM
SMILES: O=C1CCC(N2C(=O)c3ccc(NCc4ccccc4)cc3C2=O)C(=O)N1 [Compound D-25, 5-(benzylamino)-2-(2,6-dioxopiperidin-3-yl)isoindoline-1,3-dione]

IC50 ([1]; read-out: CRBN alpha IC50): 0.266 µM
IC50 [2]: > 50 µM
SMILES: CC(=O)Nc1ccc2c(c1)C(=O)N(C1CCC(=O)NC1=O)C2=O [Compound D-5, N-(2-(2,6-dioxopiperidin-3-yl)-1,3-dioxoisoindolin-5-yl)acetamide]

IC50 ([1]; read-out: CRBN alpha IC50): 0.646 µM
SMILES: CC(=O)NCc1cccc2c1C(=O)N(C1CCC(=O)NC1=O)C2=O [Compound D-23, N-((2-(2,6-dioxopiperidin-3-yl)-1,3-dioxoisoindolin-4-yl)methyl)acetamide]
Nluc/Fluc IKZF1 Max Degradation [2]: 59.03

IC50 ([1]; read-out: CRBN alpha IC50): 0.493 µM
IC50 [2]: > 50 µM
SMILES: O=C1CCC(N2C(=O)c3ccc(F)cc3C2=O)C(=O)N1 [Compound D-24, 2-(2,6-dioxopiperidin-3-yl)-5-fluoroisoindoline-1,3-dione]

Dmax [8, 12]: 24%
Dmax [8, 13]: 24%
IC50 ([9]; read-out: BRD4 Alpha (IC50)): 1540 nM
IC50 ([9]; read-out: IC50 (nM) BRD4): 1540 nM
SMILES: Cc1cnc(Nc2ccc(N3CCN(C(=O)CCC(=O)NCCCOCCOCCOCCCNC(=O)COc4cccc5c4C(=O)N(C4CCC(=O)NC4=O)C5=O)CC3)cc2)nc1Nc1cccc(S(=O)(=O)NC(C)(C)C)c1 (stereo not shown) [dBET34]
IC50 [11]: 3920 nM

IC50 [3]: 217 nM
IC50 [4]: 13500 nM
SMILES: Cc1sc2c(c1C)C(c1ccc(C#N)cc1)=N[C@@H](CC(=O)NCCCCNC(=O)COc1cccc3c1C(=O)N(C1CCC(=O)NC1=O)C3=O)c1nnc(C)n1-2 (stereo partly shown) [dBET17]
IC50 [11]: 5020 nM
IC50 [5]: > 20000 nM
IC50 [6]: 17300 nM
IC50 [7]: > 20000 nM

Dmax [8, 12]: 50%
Dmax [8, 13]: 50%
IC50 ([9]; read-out: BRD4 Alpha (IC50)): 3300 nM
IC50 ([9]; read-out: IC50 (nM) BRD4): 3300 nM
SMILES: Cc1cnc(Nc2ccc(N3CCN(C(=O)CCC(=O)NCCCCNC(=O)COc4cccc5c4C(=O)N(C4CCC(=O)NC4=O)C5=O)CC3)cc2)nc1Nc1cccc(S(=O)(=O)NC(C)(C)C)c1 (stereo not shown) [dBET32]
IC50 [11]: 5730 nM

IC50 ([1]; read-out: CRBN alpha IC50): 0.667 µM
SMILES: CC(=O)Nc1cccc2c1C(=O)N(C1CCC(=O)NC1=O)C2=O [Compound D-3, N-(2-(2,6-dioxopiperidin-3-yl)-1,3-dioxoisoindolin-4-yl)acetamide]
Nluc/Fluc IKZF1 Max Degradation [2]: 38.24

Dmax [8, 12]: < 5%
Emax [8]: 91.2%
Dmax [8, 13]: > 5%
EC50 [10]: 7.73 µM
IC50 [1, 14]: 0.0171 µM
SMILES: Cc1sc2c(c1C)C(c1ccc(Cl)cc1)=N[C@@H](CC(=O)NCCCCOc1cccc3c1C(=O)N(C1CCC(=O)NC1=O)C3=O)c1nnc(C)n1-2 (stereo partly shown) [dBET28]

IC50 ([1]; read-out: CRBN alpha IC50): 126 µM
IC50 [2]: > 50 µM
SMILES: Cc1nc2ccccc2c(=O)n1C1CC(=O)NC1=O [Compound D-11, 3-(2-methyl-4-oxoquinazolin-3(4H)-yl)pyrrolidine-2,5-dione]

IC50 ([1]; read-out: CRBN alpha IC50): 0.619 µM
IC50 [2]: > 50 µM
SMILES: O=C1CCC(N2C(=O)c3ccc(C(=O)NCc4ccccc4)cc3C2=O)C(=O)N1 [Compound D-15, N-benzyl-2-(2,6-dioxopiperidin-3-yl)-1,3-dioxoisoindoline-5-carboxamide]

IC50 ([1]; read-out: CRBN alpha IC50): 0.2 µM
IC50 [2]: > 50 µM
SMILES: CCN(CC)c1ccc2c(c1)C(=O)N(C1CCC(=O)NC1=O)C2=O [Compound D-27, 5-(diethylamino)-2-(2,6-dioxopiperidin-3-yl)isoindoline-1,3-dione]

Conc@Emax [8]: 50 µM
Dmax [8, 12]: 78.5%
Emax [8]: 26.2%
Dmax [8, 13]: 79%
EC50 [10]: 3140 µM
IC50 [1, 14]: 0.0265 µM
SMILES: Cc1c(C(=O)NCCCCNC(=O)COc2cccc3c2C(=O)N(C2CCC(=O)NC2=O)C3=O)sc2c1C(c1ccc(Cl)cc1)=N[C@@H](CC(=O)NCCCN1CCN(C)CC1)c1nnc(C)n1-2 (stereo partly shown) [dBET30]

From patent publication US10464925B2, “Methods to induce targeted protein degradation through bifunctional molecules” (Dana-Farber Cancer Institute, Inc., priority 2015, dated 2019)
